Test results: patent US20040152903A1, “6-chloro-3-pyridylmethylpropylamine derivatives, preparation process thereof and bactericides” (priority 2004, published 2004)

Key:
Assay in all cases: Antifungal activity test (PDA plate, hypha extension inhibition)
Assay type in all cases: cell-based
[1] = system: Pseudocercosporella herpotrichoides; conditions: 25 ppm in PDA culture medium
Protocol: (Antifungal Activity Test against Various Pathogenic Fungi) For each of the compounds I-1 to 27 of the present invention and the comparative compounds (a) to (d), (m-1) and (m-3), 20 mg was weighed and dissolved in 2 ml of dimethylsulfoxide, and a double dilution row in 10 steps was prepared by further using dimethylsulfoxide. A 0.6 ml portion of these solutions was each added to 60 ml of a PDA culture medium (potato-dextrose-agar culture medium) at about 60° C., they were well mixed in a 100 ml Erlenmeyer flask, the solution was poured into a schale and was solidified, the plate culture media containing the compounds according to the present invention with final concentrations of 100, 50.0, 25.0, 12.5, 6.3, 3.2, 1.6, 0.8, 0.4 and 0.2 mg/l were prepared. On the other hand, the specimen bacteria cultured on the plate culture media beforehand was punched by a 4 mm diameter cork borer, and was inoculated on the plate culture media containing the aforementioned chemicals. After the inoculation, the bacteria were cultured at the optimum growth temperature of each bacterium for 1 to 7 days (for this optimum growth temperature, LIST OF CULTURES 1996 Microorganisms 10th edition published by Fermentation Research Institute (Foundation) can be referred to.), and the growth of the bacteria was measured by the diameter of a colony. […]

Leptosphaeria nodorum = conditions: 0.8 ppm in PDA culture medium
Protocol: (§1) (Antifungal Activity Test against Various Pathogenic Fungi) For each of the compounds I-1 to 27 of the present invention and the comparative compounds (a) to (d), (m-1) and (m-3), 20 mg was weighed and dissolved in 2 ml of dimethylsulfoxide, and a double dilution row in 10 steps was prepared by further using dimethylsulfoxide. A 0.6 ml portion of these solutions was each added to 60 ml of a PDA culture medium (potato-dextrose-agar culture medium) at about 60° C., they were well mixed in a 100 ml Erlenmeyer flask, the solution was poured into a schale and was solidified, the plate culture media containing the compounds according to the present invention with final concentrations of 100, 50.0, 25.0, 12.5, 6.3, 3.2, 1.6, 0.8, 0.4 and 0.2 mg/l were prepared. On the other hand, the specimen bacteria cultured on the plate culture media beforehand was punched by a 4 mm diameter cork borer, and was inoculated on the plate culture media containing the aforementioned chemicals. After the inoculation, the bacteria were cultured at the optimum growth temperature of each bacterium for 1 to 7 days (for this optimum growth temperature, LIST OF CULTURES 1996 Microorganisms 10th edition published by Fermentation Research Institute (Foundation) can be referred to.), and the growth of the bacteria was measured by the diameter of a colony. […] R=100(dc−dt)/dc (Equation 3) [wherein each symbol is shown as follows: R=Hypha extension inhibition rate (%), dc=Diameter of colony on no-treated plate, dt=Diameter of colony on chemical-treated plate.] The results obtained above was evaluated in 5 steps in accordance with the following examination scale. <Growth Inhibition> 5: Hypha extension inhibition rate of 90% or more 4: Hypha extension inhibition rate of from 70% to less than 90% 3: […] 2: […] In addition, the abbreviations in Table 10 are as follows: L.n: Leptosphaeria nodorum

Botrytis cinerea = conditions: 1.6 ppm in PDA culture medium
Protocol: as §1, with “B.c: Botrytis cinerea” for “L.n: Leptosphaeria nodorum”

Row | Structure (SMILES) | Growth Inhibition P.h (25) [1] | Growth Inhibition L.n (0.8) (Leptosphaeria nodorum) | Growth Inhibition B.c (1.6) (Botrytis cinerea)
1 | CC(Cc1ccc(C(F)(F)F)c(F)c1F)CN(C)Cc1ccc(Cl)nc1 (stereo not drawn) [Compound I-10] | 5 (Hypha extension inhibition rate of 90% or more) | 4 (Hypha extension inhibition rate of from 70% to less than 90%) | 5 (Hypha extension inhibition rate of 90% or more)
2 | CC(Cc1ccc2c(c1)OC(F)(F)O2)CN(C)Cc1ccc(Cl)nc1 (stereo not drawn) [Compound I-24] | 5 (Hypha extension inhibition rate of 90% or more) | 5 (Hypha extension inhibition rate of 90% or more) | 4 (Hypha extension inhibition rate of from 70% to less than 90%)
